Results from BindingDB's records for doi:10.1021/bi200855m (Whitman College, 2011).

Target: T1, 2,6-dichloro-p-hydroquinone 1,2-dioxygenase (Sphingobium chlorophenolicum, UniProt Q9ZBB0)
T1 sequence (Q9ZBB0 whole entry): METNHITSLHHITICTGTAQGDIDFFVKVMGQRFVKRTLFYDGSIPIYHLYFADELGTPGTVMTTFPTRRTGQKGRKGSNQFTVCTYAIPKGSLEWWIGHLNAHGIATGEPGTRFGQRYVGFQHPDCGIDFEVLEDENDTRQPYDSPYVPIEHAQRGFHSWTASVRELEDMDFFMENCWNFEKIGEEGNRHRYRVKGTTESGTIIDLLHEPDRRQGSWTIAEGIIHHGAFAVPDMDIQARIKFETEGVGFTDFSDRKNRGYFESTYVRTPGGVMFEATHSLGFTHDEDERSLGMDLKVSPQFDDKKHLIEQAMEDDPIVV
Experiment: Inhibition Assay
Experimental: The rate of the enzymatic reaction was determined by measuring product formation by a spectrophotometric assay developed by Xun and co-worker with modification. The assay was performed on a Cary 50 Bio or Cary 5000 UV-visible spectrophotometer (Varian).

How did the Ki turn out when Oc1c(Br)cccc1Br was run?
The Ki was 13 µM.

Oc1c(Cl)cccc1Cl [2,6-Dichlorophenol] was tested. Which Ki did it give?
The Ki was 48 µM.
